Values quoted from earlier work as cited in article PMC9762682, “Tocotrienols: Exciting Biological and Pharmacological Properties of Tocotrienols and Naturally Occurring Compounds, Part II” (Annals of clinical case reports, 2022).
Like-named read-outs stand apart in the source and are kept apart here. Marks after values point to notes of the source that are not given here.

Tests used:
[1] = system: Pancreas cancer cells; set-up: method as in PMID 29606130
[2] = system: cytokines, adiponectin, TGF-β1, leptin; set-up: method as in ref 14 = [14]; PMID 27493840; doi:10.4172/2155-9880.1000434; 14. Qureshi AA , Khan DA , Saleem S , Silswal N , Trias AM , Tan B , Pharmacokinetics and bioavailability of Annatto δ-tocotrienol in healthy fed subjects . J Clin Exp Cardiol . 2015; 6 : 11 . 10.417; settings: δ-tocotrienol treatment, pharmacokinetic study
[3] = system: hypercholesterolemic subjects
[4] = system: Hela cells; set-up: method as in PMID 29606130; value at effective dose: unit not given here;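 for IC50: anti-proliferation of cancer cells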
[5] = system: T-cells (Jurkat); set-up: method as in PMID 29606130
[6] = system: Liver cancer cells; set-up: method as in PMID 29606130; value at effective dose: unit not given here
[7] = system: plasma miRNAs; set-up: method as in earlier work
[8] = system: B-Lymphocyte cells; set-up: method as in PMID 29606130; value at effective dose: unit not given here;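 for IC50: anti-proliferation of cancer cells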
[9] = system: gene expression of TNF-α, IL-2, IL-4, IL-6, IL-8, IL-10; set-up: method as in earlier work; settings: 250 mg/d + AHA Step-1 diet; baseline = 100
[10] = system: Prostate cancer cells; set-up: method as in PMID 29606130; value at effective dose: scale not given here;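 for IC50: anti-proliferation of cancer cells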
[11] = system: 20S rabbit muscle proteasome
[12] = set-up: method as in ref 16 = [16]; PMID 27493840; doi:10.4172/2155-9880.1000434; 16. Qureshi AA , Khan DA , Silswal N , Saleem S , Qureshi N . Evaluation of pharmacokinetics and bioavailability of higher doses of δ-tocotrienol in healthy fed humans . J Clin Exp Cardiol . 2016; 7
[13] = system: Melanoma cells; set-up: method as in PMID 29606130
[14] = system: Lung cancer cells; set-up: method as in PMID 29606130; value at effective dose: unit not given here
[15] = 250 mg/d + AHA Step-1 diet, baseline = 100
[16] = plasma tocol after single dose 750 mg δ-tocotrienol
[17] = plasma tocol after single dose 750 mg δ-tocotrienol, listed as δ-tocotrienol
[18] = plasma tocol after single dose 1000 mg δ-tocotrienol
[19] = plasma tocol after single dose 1000 mg δ-tocotrienol, listed as δ-tocotrienol

IC50 [1]: 10 µM
percentage of control at IC50 dose [1]: 36%
IC50 [4]: 5 µM
percentage of control at IC50 dose [4]: 45%
IC50 [5]: 20 µM
percentage of control at IC50 dose [5]: 32%
IC50 [6]: 20 µM
percentage of control at IC50 dose [6]: 53%
IC50 [8]: 10 µM
percentage of control at IC50 dose [8]: 55%
IC50 [10]: 10 µM
percentage of control at IC50 dose [10]: 39%
plasma tocol level ([12]; 0 Hr., single dose 750 mg δ-tocotrienol): 132 ± 12 ng/mL
plasma tocol level ([12]; 0 Hr., single dose 1000 mg δ-tocotrienol): 360 ± 20 ng/mL
Time of clearance (Cl-T) ([12]; 750 mg/d): 0.086 h⁻¹
Time of clearance (Cl-T) ([12]; 1000 mg/d): 0.078 h⁻¹
plasma tocol level ([12]; 1 hr., single dose 750 mg δ-tocotrienol): 310 ± 28 ng/mL
plasma tocol level ([12]; 1 hr., single dose 1000 mg δ-tocotrienol): 993 ± 33 ng/mL
plasma tocol level ([12]; 2 hr., single dose 750 mg δ-tocotrienol): 877 ± 24 ng/mL
plasma tocol level ([12]; 2 hr., single dose 1000 mg δ-tocotrienol): 1593 ± 44 ng/mL
plasma tocol level ([12]; 4 hr., single dose 750 mg δ-tocotrienol): 1444 ± 53 ng/mL
plasma tocol level ([12]; 4 hr., single dose 1000 mg δ-tocotrienol): 884 ± 45 ng/mL
plasma tocol level ([12]; 6 hr., single dose 750 mg δ-tocotrienol): 759 ± 30 ng/mL
plasma tocol level ([12]; 6 hr., single dose 1000 mg δ-tocotrienol): 562 ± 47 ng/mL
plasma tocol level ([12]; 8 hr., single dose 750 mg δ-tocotrienol): 523 ± 13 ng/mL
Area Under the Curve-t0 - t8 (AUC0-8) [12, 16]: 6620.87 ± 49.67^a ^* ng/ml
Area Under the Curve-t0 - ∞ (AUC0-∞) [12, 16]: 8687.69 ± 201.01^a ^* ng/ml
Elimination of Half-life time (t1/2) [12, 16]: 2.74 ± 0.13^a h
Elimination rate constant (ke) [12, 16]: 0.253 ± 0.167^a h-1
Peak Plasma Concentration (Cmax) [12, 16]: 1444.23 ± 53.07^a ng/ml
Time of clearance (Cl-T) [12, 16]: 0.086 ± 0.002^a I/h
Time to achieve plasma peak (Tmax) [12, 16]: 4.00^a h
Area Under the Curve-t0 - t8 (AUC0-8) [12, 17]: 6620 ng·h/mL
Area Under the Curve-t0 - ∞ (AUC0-∞) [12, 17]: 8690 ng·h/mL
Elimination rate constant (ke) [12, 17]: 0.25 h⁻¹
Peak Plasma Concentration (Cmax) [12, 17]: 1444 ng/mL
Area Under the Curve-t0 - t8 (AUC0-8) [12, 18]: 7450.10 ± 89.01^a ^* ng/ml
Area Under the Curve-t0 - ∞ (AUC0-∞) [12, 18]: 9633.18 ± 382.98^a ^* ng/ml
Elimination of Half-life time (t1/2) [12, 18]: 2.68 ± 0.29^a h
Elimination rate constant (ke) [12, 18]: 0.260 ± 0.143^a h-1
Peak Plasma Concentration (Cmax) [12, 18]: 1591.89 ± 43.97^a ng/ml
Time of clearance (Cl-T) [12, 18]: 0.078 ± 0.003^a I/h
Time to achieve plasma peak (Tmax) [12, 18]: 4.00^a h
Area Under the Curve-t0 - t8 (AUC0-8) [12, 19]: 7450 ng·h/mL
Area Under the Curve-t0 - ∞ (AUC0-∞) [12, 19]: 9630 ng·h/mL
Peak Plasma Concentration (Cmax) [12, 19]: 1592 ng/mL
Total tocols (sum of 0-8 h) ([12]; single dose 750 mg δ-tocotrienol): 4045 ng/mL
IC50 [13]: 10 µM
percentage of control at IC50 dose [13]: 50%
IC50 [14]: 20 µM
percentage of control at IC50 dose [14]: 11%
SMILES: CC(C)=CCC/C(C)=C/CC/C(C)=C/CC[C@]1(C)CCc2cc(O)cc(C)c2O1 [δ-Tocotrienol]
effective dose ([1]; 48 h): 20 µM
percentage of control at effective dose ([1]; 48 h): 5%
adiponectin, TGF-β1, and leptin [2]: up-regulation
eight cytokines [2]: down-regulation
reduction of LDL-cholesterol (maximum effect) ([3]; 250 mg/d + AHA Step-1 diet): 18%
reduction of total cholesterol (maximum effect) ([3]; 250 mg/d + AHA Step-1 diet): 15%
reduction of triglycerides (maximum effect) ([3]; 250 mg/d + AHA Step-1 diet): 14%
effect on HDL-cholesterol ([3]; 125-750 mg/d + AHA Step-1 diet): without affecting
levels of lipid parameters ([3]; above 500 mg/d dose + AHA Step-1 diet): induction
effective dose ([4]; 48 h): 20 µM
percentage of control at effective dose ([4]; 48 h): 18%
value at effective dose ([4]; 48 h): 8.3 ± 2.1
effective dose ([6]; 48 h): 20 µM
percentage of control at effective dose ([6]; 48 h): 24%
value at effective dose ([6]; 48 h): 17.7 ± 2.1
plasma miRNA-7a [7, 15]: 168.0 ± 1.41
plasma miRNA-15a [7, 15]: 179.0 ± 1.41
plasma miRNA-20a [7, 15]: 168.00 ± 2.24
plasma miRNA-21 [7, 15]: 143.0 ± 2.83
plasma miRNA-29a [7, 15]: 142.0 ± 2.83
plasma miRNA-92a [7, 15]: 153.5 ± 2.12
plasma miRNA-200 [7, 15]: 146.0 ± 1.41
plasma miRNA-206 [7, 15]: 150 ± 2.83
Circulating miRNA-7a, miRNA-15a, miRNA-20a, miRNA-21, miRNA-29a, miRNA-92a, miRNA-200, miRNA-206 ([7]; compared to baseline in hypercholesterolemic subjects): up-regulated
effective dose [8]: 20 µM
percentage of control at effective dose [8]: 21%
value at effective dose [8]: 2.7 ± 1.5
Gene Expression IL-2 [9]: 91.5 ± 3.54
Gene Expression IL-4 [9]: 77.5 ± 2.12
Gene Expression IL-6 [9]: 73.5 ± 0.71
Gene Expression IL-8 [9]: 92.0 ± 2.83
Gene Expression IL-10 [9]: 89.0 ± 1.41
Gene Expression TNF-α [9]: 84.5 ± 0.71^a, ^**
effective dose ([10]; 48 h): 20 µM
percentage of control at effective dose ([10]; 48 h): 35%
value at effective dose ([10]; 48 h): 12.3 ± 1.5
chymotrypsin-like activity of 20S rabbit muscle proteasome ([11]; 40 μM): inhibition
chymotrypsin-like activity of 20S rabbit muscle proteasome ([11]; 80 μM): activation
effective dose [13]: 20 µM
percentage of control at effective dose [13]: 37%
effective dose [14]: 20 µM
percentage of control at effective dose [14]: 11%
value at effective dose [14]: 8.3 ± 2.1
